Reference: patent EP4782453A1 (Beyang Therapeutics Co., Ltd., priority 2023, dated 2025)
Read-outs that look alike come from different tables or passages of the source.

Biological target: T1, Menin-MLL (Homo sapiens, UniProt O00255)
T1 construct: His-Menin (M1-L615 end); purchased BIORTUS BP9210
T1 sequence (O00255 1-615 isoform O00255-1): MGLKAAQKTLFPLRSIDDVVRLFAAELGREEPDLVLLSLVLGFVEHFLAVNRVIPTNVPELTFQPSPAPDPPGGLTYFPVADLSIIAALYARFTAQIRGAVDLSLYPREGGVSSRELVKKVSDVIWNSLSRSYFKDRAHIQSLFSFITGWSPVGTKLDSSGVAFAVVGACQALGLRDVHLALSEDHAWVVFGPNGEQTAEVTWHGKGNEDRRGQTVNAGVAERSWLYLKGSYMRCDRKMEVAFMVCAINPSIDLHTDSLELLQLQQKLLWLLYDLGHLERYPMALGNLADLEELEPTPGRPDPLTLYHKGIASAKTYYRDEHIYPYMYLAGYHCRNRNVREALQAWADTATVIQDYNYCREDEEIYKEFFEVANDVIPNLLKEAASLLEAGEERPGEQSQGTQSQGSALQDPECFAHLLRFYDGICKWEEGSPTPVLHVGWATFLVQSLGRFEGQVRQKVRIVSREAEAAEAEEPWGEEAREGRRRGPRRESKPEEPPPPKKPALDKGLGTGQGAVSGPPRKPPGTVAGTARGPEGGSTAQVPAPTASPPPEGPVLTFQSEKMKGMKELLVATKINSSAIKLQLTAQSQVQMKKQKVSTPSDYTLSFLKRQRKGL
Assay: Inhibitory activity against Menin-MLL binding (fluorescence polarization)
Details: 150 nM His-Menin, 15 nM FITC-MLL, 25°C for 60 min
How it was run: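 Fluorescence polarization competition: compound and 150 nM His-tagged menin (residues M1-L615) sit 15 min at 25 °C in pH 7.5 HEPES buffer with NaCl, DTT and BSA; 15 nM FITC-labelled MLL peptide then binds for 60 min. IC50 fitted sigmoidally from mP values, duplicate wells.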

[1] = Menin-MLL IC50, fluorescence polarization
[2] = fluorescence polarization, read-out: Menin-MLL IC50

SMILES | IC50 [2] | IC50 [1]
CCN(C(=O)c1cc(F)ccc1-c1cc(C2CN(C(=O)[C@@H]3CCCCN3)C2)cn2c(C)nc(Cl)c12)C(C)C [Example 126] |  | 19 nM
CCN(C(=O)c1cc(F)ccc1-c1cc(N2CCN(C(=O)C3NCCC3c3ccccc3)CC2)cn2c(C)nc(Cl)c12)C(C)C (stereo not shown) [Example 127] | 73.5 nM | 
C=C1CN[C@H](C(=O)N2CC(c3cc(-c4ccc(F)cc4C(=O)N(CC)C(C)C)c4c(F)nc(C)n4c3)C2)C1 [Example 130] | 62 nM | 
CCN(C(=O)c1cc(F)ccc1-c1cc(C2CCN(C[C@H]3CC[C@H](NS(=O)(=O)CC)CC3)CC2)nn2c(C)ncc12)C(C)C [Example 136, N-ethyl-5-fluoro-2-[7-methyl-2-(1-{[(1r,4r)-4-ethanesulfonamidocyclohexyl]methyl}piperidin-4-yl)imidazo[1,5-b]pyridazin-4-yl]-N-(isopropyl)benzamide] |  | 129 nM
Cc1ncc2c(-c3ccc(F)cc3C(=O)N(CC(F)F)C(C)C)cc(N3CCN(C(=O)[C@@H]4CCC(c5cccc(F)c5)N4)CC3)cn12 (stereo partly drawn) [Example 140, N-(2,2-difluoroethyl)-5-fluoro-2-(6-{4-[(2S)-5-(3-fluorophenyl)pyrrolidin-2-carbonyl]piperazin-1-yl}-3-methylimidazo[1,5-a]pyridin-8-yl)-N-(isopropyl)benzamide] | 161 nM | 
COCCN(C)CCCC(C(C)C)N1CC(c2cc(-c3ccc(F)cc3C(=O)N(CC(F)F)C(C)C)c3cnccn23)C1 (stereo not shown) [Example 147, N-(2,2-difluoroethyl)-5-fluoro-2-[6-(1-{6-[(2-methoxyethyl)(methyl)amino]-2-methylhexan-3-yl}azacyclobutan-3-yl)pyrrolo[1,2-a]pyrazin-8-yl]-N-(isopropyl)benzamide] | 140 nM | 
CCS(=O)(=O)N[C@H]1CC[C@H](CN2CC(c3cc(-c4ccc(F)cc4C(=O)N(CC(F)F)C(C)C)c4cnn(C)c4c3)C2)CC1 [Example 153, N-(2,2-difluoroethyl)-5-fluoro-2-[1-methyl-6-(1-{[(1r,4r)-4-ethanesulfonamidocyclohexyl]methyl}-azacyclobutan-3-yl)-1H-indazol-4-yl]-N-(isopropyl)benzamide] |  | 31 nM
CCS(=O)(=O)N[C@H]1CC[C@H](CN2CCC(c3cc(-c4ccc(F)cc4C(=O)N(CC(F)F)C(C)C)c4cnc(C)cn34)CC2)CC1 [Example 154, N-(2,2-difluoroethyl)-5-fluoro-2-[3-methyl-6-(1-{[(1r,4r)-4-ethanesulfonamidocyclohexyl]methyl}piperidin-4-yl)pyrrolo[1,2-a]pyrazin-8-yl]-N-(isopropyl)benzamide] |  | 166 nM
Cc1nc(F)c2c(-c3ccc(F)cc3C(=O)N(CC(F)F)C(C)C)cc(C3CN(C(=O)[C@@H]4C[C@@H](C)CCN4)C3)cn12 [Example 155] | 23 nM | 
Cc1nc(F)c2c(-c3ccc(F)cc3C(=O)N(CC(F)F)C(C)C)cc(C3CN(C(=O)[C@H]4NCC[C@@H]4C)C3)cn12 [Example 156] | 30 nM | 
CCS(=O)(=O)N[C@H]1CC[C@H](CN2CC(c3cc(-c4ccc(F)cc4C(=O)N4CCOC[C@H]4C)c4cnn(C)c4c3)C2)CC1 [Example 159, N-[(1r,4r)-4-{[3-(4-{4-fluoro-2-[(3R)-3-methylmorpholin-4-carbonyl]phenyl}-1-methyl-1H-indazol-6-yl)azacyclobutan-1-yl]methyl}cyclohexyl]ethan-1-sulfonamide] |  | 69 nM
CCS(=O)(=O)N[C@H]1CC[C@H](CCN2CC(c3cc(-c4ccc(F)cc4C(=O)N4CCOC[C@H]4C)c4cnn(C)c4c3)C2)CC1 [Example 160] | 62 nM | 
CCS(=O)(=O)N[C@H]1CC[C@H](CN2CC(Cc3cc(-c4ccc(F)cc4C(=O)N(CC(F)F)C(C)C)c4cnn(C)c4c3)C2)CC1 [Example 161, N-(2,2-difluoroethyl)-5-fluoro-2-{1-methyl-6-[(1-{[(1r,4r)-4-ethanesulfonamidocyclohexyl]methyl}azacyclobutan-3-yl)methyl]-1H-indazol-4-yl}-N-(isopropyl)benzamide] |  | 33.5 nM
CCS(=O)(=O)N[C@H]1CC[C@H](CN2CC(c3cc(-c4ccc(F)cc4C(=O)N4CCC[C@H]4C)c4cnn(C)c4c3)C2)CC1 [Example 167] | 57 nM | 
CCS(=O)(=O)N[C@H]1CC[C@H](CN2CCCC(c3cc(-c4ccc(F)cc4C(=O)N(CC(F)F)C(C)C)c4cnn(C)c4c3)C2)CC1 (stereo partly shown) [Example 170, N-(2,2-difluoroethyl)-5-fluoro-2-[1-methyl-6-(1-{[(1r,4r)-4-ethanesulfonamidocyclohexyl]methyl}piperidin-3-yl)-1H-indazol-4-yl]-N-(isopropyl)benzamide] |  | 60 nM
C[C@@H]1COCCN1C(=O)c1cc(F)ccc1-c1cc(C2CN(CC3CCN(C(=O)C4(O)CC4)CC3)C2)cc2c1cnn2C [Example 171, 1-(4-{[3-(4-{4-fluoro-2-[(3R)-3-methylmorpholin-4-carbonyl]phenyl}-1-methyl-1H-indazol-6-yl)azacyclobutan-1-yl]methyl}piperidin-1-carbonyl)cyclopropan-1-ol] | 86 nM | 
CNC(=O)N1CCC(CN2CC(c3cc(-c4ccc(F)cc4C(=O)N4CCOC[C@H]4C)c4cnn(C)c4c3)C2)CC1 [Example 172] | 98 nM | 
C[C@@H]1COCCN1C(=O)c1cc(F)ccc1-c1cc(C2CN(CC3CCN(C(=O)CC#N)CC3)C2)cc2c1cnn2C [Example 173] | 118 nM | 

Continued, in another order:

IC50 [2] | SMILES | IC50 [1]
102 nM | CCS(=O)(=O)N[C@H]1CC[C@H](CN2CC(c3cc(-c4ccc(F)cc4C(=O)N4CCOC[C@@H]4C)c4cnc(C)n4c3)C2)CC1 [Example 135] | 
2.7 nM | CCS(=O)(=O)NC1CCC(CN2CC(c3cc(-c4ccc(F)cc4C(=O)N(CC(F)F)C(C)C)c4cnccn34)C2)CC1 (stereo not shown) [Example 143, N-(2,2-difluoroethyl)-2-(6-{1-[(4-ethanesulfonamidocyclohexyl)methyl]azacyclobutan-3-yl}pyrrolo[1,2-a]pyrazin-8-yl)-5-fluoro-N-(isopropyl)benzamide] | 
51 nM | C=C1CN[C@H](C(=O)N2CCC(c3cc(-c4ccc(F)cc4C(=O)N(CC(F)F)C(C)C)c4cnc(C)n4c3)CC2)C1 [Example 144] | 
74.5 nM | CCS(=O)(=O)N[C@@H]1CC[C@@H](CN2CC(c3cc(-c4ccc(F)cc4C(=O)N(CC(F)F)C(C)C)c4cnn(C)c4c3)C2)OC1 [Example 152, N-(2,2-difluoroethyl)-2-[6-(1-{[(2S,5R)-5-ethanesulfonamidooxacyclohexan-2-yl]methyl}azacyclobutan-3-yl)-1-methyl-1H-indazol-4-yl]-5-fluoro-N-(isopropyl)benzamide] | 
165 nM | CC(C)N(CC(F)F)C(=O)c1cc(F)ccc1-c1cc(C2CCN(C[C@@H]3CC[C@@H](NC(=O)OC(C)(C)C)CO3)C2)cc2c1cnn2C (stereo partly shown) [Example 158] | 
38 nM | CCS(=O)(=O)N[C@@H]1CC[C@@H](CN2CCC(c3cc(-c4ccc(F)cc4C(=O)N(CC(F)F)C(C)C)c4cnc(C)n4c3)C2)OC1 (stereo partly drawn) [Example 163, N-(2,2-difluoroethyl)-2-[6-(1-{[(2S,5R)-5-ethanesulfonamidooxacyclohexan-2-yl]methyl}pyrrolidin-3-yl)-3-methylimidazo[1,5-a]pyridin-8-yl]-5-fluoro-N-(isopropyl)benzamide] | 
47 nM | CCS(=O)(=O)N[C@@H]1CC[C@@H](CN2CC[C@@H](c3cc(-c4ccc(F)cc4C(=O)N(CC(F)F)C(C)C)c4cnc(C)n4c3)C2)OC1 [Example 163-1, N-(2,2-difluoroethyl)-2-{6-[(3S)-1-{[(2S,5R)-5-ethanesulfonamidooxacyclohexan-2-yl]methyl}pyrrolidin-3-yl]-3-methylimidazo[1,5-a]pyridin-8-yl}-5-fluoro-N-(isopropyl)benzamide] | 
54 nM | CCS(=O)(=O)N[C@@H]1CC[C@@H](CN2CC[C@H](c3cc(-c4ccc(F)cc4C(=O)N(CC(F)F)C(C)C)c4cnc(C)n4c3)C2)OC1 [Example 163-2, N-(2,2-difluoroethyl)-2-{6-[(3R)-1-{[(2S,5R)-5-ethanesulfonamidooxacyclohexan-2-yl]methyl}pyrrolidin-3-yl]-3-methylimidazo[1,5-a]pyridin-8-yl}-5-fluoro-N-(isopropyl)benzamide] | 
231 nM | CC(C)N(CC(F)F)C(=O)c1cc(F)ccc1-c1cc([C@@H]2CCN(CCN3CCC(NC(=O)OC(C)(C)C)CC3)C2)cc2c1cnn2C [Example 166-1, N-(1-{2-[(3S)-3-(4-{2-[(2,2-difluoroethyl)(isopropyl)aminoformyl]-4-fluorophenyl}-1-methyl-1H-indazol-6-yl)pyrrolidin-1-yl]ethyl}piperidin-4-yl)tert-butyl carbamate] | 
248 nM | CC(C)N(CC(F)F)C(=O)c1cc(F)ccc1-c1cc([C@H]2CCN(CCN3CCC(NC(=O)OC(C)(C)C)CC3)C2)cc2c1cnn2C [Example 166-2, N-(1-{2-[(3R)-3-(4-{2-[(2,2-difluoroethyl)(isopropyl)aminoformyl]-4-fluorophenyl}-1-methyl-1H-indazol-6-yl)pyrrolidin-1-yl]ethyl}piperidin-4-yl)tert-butyl carbamate] | 
